For orientation: IC50 means the concentration needed to halve the response being measured.

For assay [1], the system named is HeLa cells. As to the kind of experiment: XTT cytotoxicity assay, HeLa. The conditions noted are these: Table 1; XTT assay; read-out: IC50 HeLa. The assay is classed as cell-based, human. From the text:
(§1) The impact of substituents of the aromatic ring on the potency of molecules was also examined. The presence of either an electron withdrawing group (EWG) or an electron donating group (EDG) influences the reactivity of a Michael acceptor towards the target protein but can also impact specificity/selectivity.

In assay [2] the test system is SKOV3 cells. Nature of the assay: XTT cytotoxicity assay, SKOV3. Type of assay: cell-based, human. The conditions noted are these: Table 1; XTT assay; read-out: IC50 SKOV3.
Description: as §1

`O=C1C(=Cc2ccc(O)c(O)c2)CNCC1=Cc1ccc(O)c(O)c1` [DHBC]: the 50% inhibitory concentration (IC50) in assay [1] was 667 nM; in assay [2], 788 nM.
As for `CC(N)C(=O)N1CC(=Cc2ccc(Cl)c(Cl)c2)C(=O)C(=Cc2ccc(Cl)c(Cl)c2)C1` (stereo not shown) [RA7-Ala], the IC50 in assay [1] worked out at 68 nM; in assay [2], 92 nM.
As to `NCC(=O)N1CC(=Cc2ccc(Cl)c(Cl)c2)C(=O)C(=Cc2ccc(Cl)c(Cl)c2)C1` [RA7-Gly], the IC50 in assay [1] was 65 nM; in assay [2], 78 nM.
Regarding `CCC(C)C(NC(=O)C(F)(F)F)C(=O)N1CC(=Cc2ccc(Cl)c(Cl)c2)C(=O)C(=Cc2ccc(Cl)c(Cl)c2)C1` (stereo not shown) [RA7-IleC], the IC50 in assay [1] came to 61 nM; in assay [2] it was 77 nM.
Turning to `CCC(C)C(N)C(=O)N1CC(=Cc2ccc(Cl)c(Cl)c2)C(=O)C(=Cc2ccc(Cl)c(Cl)c2)C1` (stereo not shown) [RA7-Ile], the results for the IC50 in assay [1] and in assay [2] were 72 nM and 101 nM, respectively.
For `CC(C)C(N)C(=O)N1CC(=Cc2ccc(Cl)c(Cl)c2)C(=O)C(=Cc2ccc(Cl)c(Cl)c2)C1` (stereo not shown) [RA7-Val], the IC50 in assay [1] worked out at 64 nM; in assay [2] it was 72 nM.
Consider `O=C1C(=Cc2ccc(Cl)c(Cl)c2)CNCC1=Cc1ccc(Cl)c(Cl)c1` [RA7], for which the IC50 in assay [1] was determined as 532 nM; in assay [2] it was 654 nM.
On to `CC(=O)NC(Cc1ccccc1)C(=O)N1CC(=Cc2ccc([N+](=O)[O-])cc2)C(=O)C(=Cc2ccc([N+](=O)[O-])cc2)C1` (stereo not shown) [RA183Ac], for which the IC50 worked out at 56 nM in assay [1] and 71 nM in assay [2].
For `C=CC(=O)NC(Cc1ccccc1)C(=O)N1CC(=Cc2ccc([N+](=O)[O-])cc2)C(=O)C(=Cc2ccc([N+](=O)[O-])cc2)C1` (stereo not shown) [RA183Acr] the same measures were 49 nM and 64 nM.
In the same order, the values of `O=C1C(=Cc2ccc([N+](=O)[O-])cc2)CN(C(=O)C(Cc2ccccc2)NC(=O)C(F)(F)F)CC1=Cc1ccc([N+](=O)[O-])cc1` (stereo not shown) [RA183CF3] are 45 nM and 79 nM.
With `C=CC(=O)N[C@@H](Cc1ccccc1)C(=O)N1C/C(=C\c2ccc(Cl)c(Cl)c2)C(=O)/C(=C/c2ccc(Cl)c(Cl)c2)C1` [RA190 ACR], the IC50 in assay [1] worked out at 42 nM; in assay [2], 62 nM.
As for `NCCCCCC(=O)NC(Cc1ccccc1)C(=O)N1CC(=Cc2ccc(Cl)c(Cl)c2)C(=O)C(=Cc2ccc(Cl)c(Cl)c2)C1` (stereo not shown) [RA190AHA], the half-maximal inhibitory concentration (IC50) in assay [1] was determined as 62 nM; in assay [2], 88 nM.
Turning to `CC(=O)N[C@@H](Cc1ccccc1)C(=O)N1C/C(=C\c2ccc(Cl)c(Cl)c2)C(=O)/C(=C/c2ccc(Cl)c(Cl)c2)C1` [RA190Ac], the IC50 in assay [1] turned out to be 46 nM; in assay [2] it was 68 nM.
Take `O=C(CCCC[C@@H]1SCC2NC(=O)NC21)N[C@@H](Cc1ccccc1)C(=O)N1C/C(=C\c2ccc(Cl)c(Cl)c2)C(=O)/C(=C/c2ccc(Cl)c(Cl)c2)C1` (stereo partly shown) [RA190B, reference compound]: the IC50 in assay [1] is 346 nM.
Regarding `O=C1C(=Cc2ccc(Cl)c(Cl)c2)CN(C(=O)C(Cc2ccccc2)NC(=O)c2ccccc2)CC1=Cc1ccc(Cl)c(Cl)c1` (stereo not shown) [RA190Bn], the IC50 in assay [1] is 86 nM; in assay [2] it was 121 nM.
For the compound `N#CCC(=O)NC(Cc1ccccc1)C(=O)N1CC(=Cc2ccc(Cl)c(Cl)c2)C(=O)C(=Cc2ccc(Cl)c(Cl)c2)C1` (stereo not shown) [RA190CA], the IC50 in assay [1] worked out at 51 nM; in assay [2], 84 nM.
In the same order, the values of `O=C1C(=Cc2ccc(Cl)c(Cl)c2)CN(C(=O)C(Cc2ccccc2)NS(=O)(=O)c2ccc(-c3ccno3)s2)CC1=Cc1ccc(Cl)c(Cl)c1` (stereo not shown) [RA190IAS] are 211 nM and 342 nM.
Take `CS(=O)(=O)NC(Cc1ccccc1)C(=O)N1CC(=Cc2ccc(Cl)c(Cl)c2)C(=O)C(=Cc2ccc(Cl)c(Cl)c2)C1` (stereo not shown) [RA190MS]: the IC50 in assay [1] worked out at 86 nM; in assay [2], 133 nM.
For `CNC(=O)NC(Cc1ccccc1)C(=O)N1CC(=Cc2ccc(Cl)c(Cl)c2)C(=O)C(=Cc2ccc(Cl)c(Cl)c2)C1` (stereo not shown) [RA190MU] the same measures were 141 nM and 239 nM.
For `Cn1cncc1S(=O)(=O)NC(Cc1ccccc1)C(=O)N1CC(=Cc2ccc(Cl)c(Cl)c2)C(=O)C(=Cc2ccc(Cl)c(Cl)c2)C1` (stereo not shown) [RA190NMS], the IC50 is 78 nM in assay [1] and 94 nM in assay [2].
`O=C1C(=Cc2ccc(Cl)c(Cl)c2)CN(C(=O)C(Cc2ccccc2)NC(=O)c2ccccn2)CC1=Cc1ccc(Cl)c(Cl)c1` (stereo not shown) [RA190P]: the IC50 in assay [1] came out at 55 nM; in assay [2] it was 64 nM.
In the same order, the values of `O=C1C(=Cc2ccc(Cl)c(Cl)c2)CN(C(=O)C(Cc2ccccc2)NC(=O)c2cnccn2)CC1=Cc1ccc(Cl)c(Cl)c1` (stereo not shown) [RA190PyC] are 65 nM and 84 nM.
Consider `O=C(O)CCC(=O)NC(Cc1ccccc1)C(=O)N1CC(=Cc2ccc(Cl)c(Cl)c2)C(=O)C(=Cc2ccc(Cl)c(Cl)c2)C1` (stereo not shown) [RA190SA], for which the IC50 in assay [1] is 121 nM; in assay [2], 253 nM.
Turning to `COc1cc(C(=O)NC(Cc2ccccc2)C(=O)N2CC(=Cc3ccc(Cl)c(Cl)c3)C(=O)C(=Cc3ccc(Cl)c(Cl)c3)C2)cc(OC)c1OC` (stereo not shown) [RA190TMB], the IC50 in assay [1] worked out at 94 nM; in assay [2] it was 112 nM.
On to `CCCC(CCC)C(=O)NC(Cc1ccccc1)C(=O)N1CC(=Cc2ccc(Cl)c(Cl)c2)C(=O)C(=Cc2ccc(Cl)c(Cl)c2)C1` (stereo not shown) [RA190VA], for which the values for the IC50 in assay [1] and in assay [2] were 74 nM and 87 nM, respectively.
In the case of `C=Cc1ccc(C(=O)NC(Cc2ccccc2)C(=O)N2CC(=Cc3ccc(Cl)c(Cl)c3)C(=O)C(=Cc3ccc(Cl)c(Cl)c3)C2)cc1` (stereo not shown) [RA190VBA], the IC50 in assay [1] is 94 nM; in assay [2], 178 nM.
`CC(C)CC(N)C(=O)N1CC(=Cc2ccc(Cl)c(Cl)c2)C(=O)C(=Cc2ccc(Cl)c(Cl)c2)C1` (stereo not shown) [RA228]: the IC50 stood at 66 nM in assay [1] and 98 nM in assay [2].
In the case of `O=C1C(=Cc2ccc(Cl)c(Cl)c2)CN(C(=O)C(Cc2ccccc2)NC(=O)C(F)(F)F)CC1=Cc1ccc(Cl)c(Cl)c1` (stereo not shown) [RA230], the figures for the IC50 in assay [1] and in assay [2] were 47 nM and 69 nM, respectively.
In the case of `Cc1ccc(S(=O)(=O)NC(Cc2ccccc2)C(=O)N2CC(=Cc3ccc(Cl)c(Cl)c3)C(=O)C(=Cc3ccc(Cl)c(Cl)c3)C2)cc1` (stereo not shown) [RA231], the IC50 in assay [1] is 111 nM; in assay [2] it was 167 nM.
Consider `O=C1C(=Cc2ccc(Cl)c(Cl)c2)CN(C(=O)C(Cc2ccccc2)NC(=O)N2CCOCC2)CC1=Cc1ccc(Cl)c(Cl)c1` (stereo not shown) [RA232], for which the IC50 stood at 61 nM in assay [1] and 77 nM in assay [2].
As for `O=C1C(=Cc2ccc(Cl)c(Cl)c2)CN(C(=O)C(Cc2ccccc2)NC(=O)c2cccnc2)CC1=Cc1ccc(Cl)c(Cl)c1` (stereo not shown) [RA233], the IC50 in assay [1] amounted to 76 nM; in assay [2], 98 nM.
On to `O=C(Nc1ccccc1)NC(Cc1ccccc1)C(=O)N1CC(=Cc2ccc(Cl)c(Cl)c2)C(=O)C(=Cc2ccc(Cl)c(Cl)c2)C1` (stereo not shown) [RA234], for which the IC50 in assay [1] was determined as 143 nM; in assay [2] it was 235 nM.
With `NC(Cc1ccc(O)cc1)C(=O)N1CC(=Cc2ccc(Cl)c(Cl)c2)C(=O)C(=Cc2ccc(Cl)c(Cl)c2)C1` (stereo not shown) [RA295], the values for the IC50 in assay [1] and in assay [2] were 89 nM and 116 nM, respectively.
Turning to `CC(=O)NCCCCC(N)C(=O)NC(Cc1ccccc1)C(=O)N1CC(=Cc2ccc(Cl)c(Cl)c2)C(=O)C(=Cc2ccc(Cl)c(Cl)c2)C1` (stereo not shown) [RA310Ac], the values for the IC50 in assay [1] and in assay [2] were 195 nM and 284 nM, respectively.

Values taken from patent US12673918B2, “Small molecule RPN13 inhibitors with antitumor properties” (The Johns Hopkins University, priority 2019, dated 2026).
